Assay results as given in patent US11161848B2, “Purinones as ubiquitin-specific protease 1 inhibitors” (FORMA Therapeutics, Inc., priority 2015, dated 2021).

Target: USP1, construct USP1 (I-785, GG670, 671AA)/UAF1 (I-677)-Flag (Homo sapiens (Human), UniProt O94782, G670A/G671A)
Assay: Ubiquitin-Rhodamine 110 assay for USP1 activity, follow-up IC50 format
Assay type: biochemical

Sequence of USP1, construct USP1 (I-785, GG670, 671AA)/UAF1 (I-677)-Flag (O94782 whole entry G670A/G671A): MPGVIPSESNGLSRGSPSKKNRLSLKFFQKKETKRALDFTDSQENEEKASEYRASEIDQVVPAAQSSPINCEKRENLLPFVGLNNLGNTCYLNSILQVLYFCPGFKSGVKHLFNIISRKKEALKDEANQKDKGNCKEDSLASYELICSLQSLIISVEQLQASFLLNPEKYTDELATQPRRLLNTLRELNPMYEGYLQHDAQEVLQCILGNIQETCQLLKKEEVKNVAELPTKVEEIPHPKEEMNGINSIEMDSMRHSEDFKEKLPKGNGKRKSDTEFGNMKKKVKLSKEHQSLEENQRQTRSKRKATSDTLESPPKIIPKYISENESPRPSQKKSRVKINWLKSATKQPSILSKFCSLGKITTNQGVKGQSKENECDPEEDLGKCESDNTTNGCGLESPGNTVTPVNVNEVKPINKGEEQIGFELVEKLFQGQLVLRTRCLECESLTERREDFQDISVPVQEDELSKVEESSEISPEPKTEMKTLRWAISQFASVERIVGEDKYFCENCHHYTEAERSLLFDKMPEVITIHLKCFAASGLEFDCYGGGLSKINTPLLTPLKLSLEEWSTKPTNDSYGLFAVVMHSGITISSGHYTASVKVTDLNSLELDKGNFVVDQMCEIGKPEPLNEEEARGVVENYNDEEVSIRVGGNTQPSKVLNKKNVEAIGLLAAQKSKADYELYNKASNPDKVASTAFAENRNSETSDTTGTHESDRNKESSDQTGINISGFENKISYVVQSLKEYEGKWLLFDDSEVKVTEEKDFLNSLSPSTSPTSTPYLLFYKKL
Sequence of USP1, construct USP1 (I-785, GG670, 671AA)/UAF1 (I-677)-Flag (Q8TAF3 whole entry partner): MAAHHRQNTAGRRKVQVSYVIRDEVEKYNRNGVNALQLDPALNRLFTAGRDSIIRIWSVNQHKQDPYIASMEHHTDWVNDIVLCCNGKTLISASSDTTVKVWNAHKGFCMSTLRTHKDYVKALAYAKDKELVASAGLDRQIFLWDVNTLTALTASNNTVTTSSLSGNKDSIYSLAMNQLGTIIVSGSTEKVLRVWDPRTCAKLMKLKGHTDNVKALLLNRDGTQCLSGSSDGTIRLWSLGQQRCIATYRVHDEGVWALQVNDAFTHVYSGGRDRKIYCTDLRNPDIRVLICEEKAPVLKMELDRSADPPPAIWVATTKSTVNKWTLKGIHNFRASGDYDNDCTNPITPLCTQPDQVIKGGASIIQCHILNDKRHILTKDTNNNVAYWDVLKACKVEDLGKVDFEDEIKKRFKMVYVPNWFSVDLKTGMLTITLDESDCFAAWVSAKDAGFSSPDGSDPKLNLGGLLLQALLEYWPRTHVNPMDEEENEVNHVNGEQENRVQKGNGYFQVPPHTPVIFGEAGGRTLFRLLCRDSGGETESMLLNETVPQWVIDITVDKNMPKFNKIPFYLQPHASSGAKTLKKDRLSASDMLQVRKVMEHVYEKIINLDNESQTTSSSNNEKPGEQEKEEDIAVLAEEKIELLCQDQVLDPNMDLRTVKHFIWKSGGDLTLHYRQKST

In the case of “9-(4-(1H-pyrazol-1-yl)benzyl)-2-(2-cyclopropylphenyl)-7,9- [Compound I-94]”, the IC50 is reported as under 50 nM.
